ChEMBL document CHEMBL4334518, “Discovery and Pharmacological Studies of 4-Hydroxyphenyl-Derived Phosphonium Salts Active in a Mouse Model of Visceral Leishmaniasis” (J Med Chem, 2019)

Key:
Leishmania donovani [1] = test: Antileishmanial activity against Leishmania donovani MHOM/ET/67/HU3 promastigote after 72 hrs by MTT assay; type: functional, organism-based; details: MHOM/ET/67/HU3, 72 h
Leishmania donovani [2] = test: Antileishmanial activity against Leishmania donovani MHOM/ET/67/HU3 intracellular amastigotes infected in human THP1 cells after 96 hrs by prolong-gold antifade-reagent/DAPI staining based assay; type: functional, organism-based; details: MHOM/ET/67/HU3, THP-1, 96 h
[3] = Selectivity index, ratio of EC50 for cytotoxicity against human THP1 cells to EC50 for antileishmanial activity against Leishmania donovani MHOM/ET/67/HU3 amastigotes infected in human THP1 cells; type: toxicity, cell-based; details: read-out: Ratio EC50
THP-1 = test: Cytotoxicity against human THP1 cells assessed as reduction in cell viability after 72 hrs by MTT assay; type: cell-based; details: THP-1, 72 h
Leishmania infantum [4] = test: Antileishmanial activity against Leishmania infantum LEM 3049 isolate promastigote after 72 hrs by MTT assay; type: functional, organism-based
Leishmania infantum [5] = test: Antileishmanial activity against Sb 3 resistant Leishmania infantum LEM 3329 isolate promastigote after 72 hrs by MTT assay; type: functional, organism-based
Leishmania infantum [6] = test: Antileishmanial activity against MIL resistant Leishmania infantum LEM 5159 isolate promastigote after 72 hrs by MTT assay; type: functional, organism-based
Leishmania infantum [7] = test: Antileishmanial activity against MIL/paromomycin resistant Leishmania infantum LEM 2126 isolate promastigote after 72 hrs by MTT assay; type: functional, organism-based
Leishmania infantum [8] = test: Antileishmanial activity against Leishmania infantum LEM 3049 isolate intracellular amastigotes infected in human THP1 cells after 96 hrs by prolong-gold antifade-reagent/DAPI staining based assay; type: functional, organism-based; details: THP-1, 96 h
Leishmania infantum [9] = test: Antileishmanial activity against Sb 3 resistant Leishmania infantum LEM 3329 isolate intracellular amastigotes infected in human THP1 cells after 96 hrs by prolong-gold antifade-reagent/DAPI staining based assay; type: functional, organism-based; details: THP-1, 96 h
Leishmania infantum [10] = test: Antileishmanial activity against MIL resistant Leishmania infantum LEM 5159 isolate intracellular amastigotes infected in human THP1 cells after 96 hrs by prolong-gold antifade-reagent/DAPI staining based assay; type: functional, organism-based; details: THP-1, 96 h
Leishmania infantum [11] = test: Antileishmanial activity against MIL/paromomycin resistant Leishmania infantum LEM 2126 isolate intracellular amastigotes infected in human THP1 cells after 96 hrs by prolong-gold antifade-reagent/DAPI staining based assay; type: functional, organism-based; details: THP-1, 96 h
[12] = Selectivity index, ratio of EC50 for cytotoxicity against human MRC5 cells to EC50 for antileishmanial activity against Leishmania donovani MHOM/ET/67/HU3 amastigotes infected in human THP1 cells; type: toxicity, cell-based; details: read-out: Ratio EC50

| SMILES | EC50 (Leishmania donovani [2]) [nM] | EC50 (Leishmania donovani [1]) [nM] | selectivity ratio [3] | EC50 (THP-1) [nM] | EC50 (Leishmania infantum [4]) [nM] | EC50 (Leishmania infantum [5]) [nM] | EC50 (Leishmania infantum [6]) [nM] | EC50 (Leishmania infantum [7]) [nM] | EC50 (Leishmania infantum [8]) [nM] | EC50 (Leishmania infantum [9]) [nM] | EC50 (Leishmania infantum [10]) [nM] | EC50 (Leishmania infantum [11]) [nM] | selectivity ratio [12] |
| --- | --- | --- | --- | --- | --- | --- | --- | --- | --- | --- | --- | --- | --- |
| C[C@@H]1[C@H](O)[C@@H](C)/C=C/C=C/C=C/C=C/C=C/C=C/C=C/[C@H](O[C@@H]2O[C@H](C)[C@@H](O)[C@H](N)[C@@H]2O)C[C@@H]2O[C@](O)(C[C@@H](O)C[C@@H](O)[C@H](O)CC[C@@H](O)C[C@@H](O)CC(=O)O[C@H]1C)C[C@H](O)[C@H]2C(=O)O [AMPHOTERICIN B] | 240 | 130 | 116 | 27800 | 60 | 70 | 50 | 100 | 170 | 180 | 160 | 160 |  |
| O=C(O)c1ccc(OCCCCCCCCCCCCCC[P+](c2ccccc2)(c2ccccc2)c2ccccc2)cc1O | < 200 | < 200 |  |  |  |  |  |  |  |  |  |  | 2 to 27 |
| CCCCCCCCCCCCCCCCOP(=O)([O-])OCC[N+](C)(C)C [MILTEFOSINE] | 910 | 6510 | 28.8 | 26200 |  |  |  |  |  |  |  |  |  |

The next lines start with results.

| EC50 (Leishmania donovani [2]) [nM] | SMILES | EC50 (Leishmania donovani [1]) [nM] | selectivity ratio [3] | EC50 (THP-1) [nM] | EC50 (Leishmania infantum [4]) [nM] | EC50 (Leishmania infantum [5]) [nM] | EC50 (Leishmania infantum [6]) [nM] | EC50 (Leishmania infantum [7]) [nM] | EC50 (Leishmania infantum [8]) [nM] | EC50 (Leishmania infantum [9]) [nM] | EC50 (Leishmania infantum [10]) [nM] | EC50 (Leishmania infantum [11]) [nM] | selectivity ratio [12] |
| --- | --- | --- | --- | --- | --- | --- | --- | --- | --- | --- | --- | --- | --- |
| 800 | O=C(OCCCCCCCCCCCCCC[n+]1cccc2ccccc21)c1ccc(O)cc1O | < 200 | 3.7 to 5 |  |  |  |  |  |  |  |  |  |  |
| 800 | O=Cc1ccc(OCCCCCCCCCCCCCC[n+]2cccc3ccccc32)cc1O |  | 3.7 to 5 |  |  |  |  |  |  |  |  |  |  |
